Assay: xn = mol fraction of the nth substance listed
Settings: 101 kPa, Liquid; for viscosity: Falling or rolling sphere viscometry; for mass density: Vibrating tube method

Cn1cc[n+](CCC[N+](C)(C)C)c1.N#C[N-]C#N.N#C[N-]C#N + CC(C)O
Settings	mass density [kg/m3]	viscosity [mPa·s]
283.15 K, x1 = 0.1001	905.3	12.27
283.15 K, x1 = 0.2	978.56	31.98
283.15 K, x1 = 0.2999	1028.83	71.59
283.15 K, x1 = 0.4	1065.91	152.1
283.15 K, x1 = 0.5001	1094.18	290.4
283.15 K, x1 = 0.5998	1114.84	452
283.15 K, x1 = 0.7002	1130.38	742.9
283.15 K, x1 = 0.8001	1142.95	1216
283.15 K, x1 = 0.8985	1153.75	2301
283.15 K, x1 = 1	1162.82	4998
288.15 K, x1 = 0.1001	901.8	10.23
288.15 K, x1 = 0.2	975.32	25.55
288.15 K, x1 = 0.2999	1025.72	54.85
288.15 K, x1 = 0.4	1062.7	110.5
288.15 K, x1 = 0.5001	1091.1	204.6
288.15 K, x1 = 0.5998	1111.98	303.9
288.15 K, x1 = 0.7002	1127.66	493.5
288.15 K, x1 = 0.8001	1140.22	749.8
288.15 K, x1 = 0.8985	1150.85	1346
288.15 K, x1 = 1	1159.76	2736
293.15 K, x1 = 0.1001	898.28	8.914
293.15 K, x1 = 0.2	972.09	21.4
293.15 K, x1 = 0.2999	1022.6	44.54
293.15 K, x1 = 0.4	1059.76	85.03
293.15 K, x1 = 0.5001	1088.04	153
293.15 K, x1 = 0.5998	1108.93	219.1
293.15 K, x1 = 0.7002	1124.71	341.4
293.15 K, x1 = 0.8001	1137.27	498.6
293.15 K, x1 = 0.8985	1147.89	843.4
293.15 K, x1 = 1	1156.74	1608
298.15 K, x1 = 0.1001	894.74	7.619
298.15 K, x1 = 0.2	968.65	18.02
298.15 K, x1 = 0.2999	1019.48	35.75
298.15 K, x1 = 0.4	1056.42	66.38
298.15 K, x1 = 0.5001	1084.68	116.5
298.15 K, x1 = 0.5998	1105.58	163
298.15 K, x1 = 0.7002	1121.85	245.1
298.15 K, x1 = 0.8001	1134.38	342.8
298.15 K, x1 = 0.8985	1144.95	558.1
298.15 K, x1 = 1	1153.73	1007
303.15 K, x1 = 0.1001	891.18	6.585
303.15 K, x1 = 0.2	965.32	15.28
303.15 K, x1 = 0.2999	1016.38	29.22
303.15 K, x1 = 0.4	1053.15	53.45
303.15 K, x1 = 0.5001	1081.45	90.62
303.15 K, x1 = 0.5998	1102.88	124.3
303.15 K, x1 = 0.7002	1118.91	181.3
303.15 K, x1 = 0.8001	1131.5	245.7
303.15 K, x1 = 0.8985	1141.97	387.2
303.15 K, x1 = 1	1150.76	662.9
308.15 K, x1 = 0.1001	887.61	5.755
308.15 K, x1 = 0.2	962.09	13.11
308.15 K, x1 = 0.2999	1013.25	24.31
308.15 K, x1 = 0.4	1050.12	43.61
308.15 K, x1 = 0.5001	1078.35	71.82
308.15 K, x1 = 0.5998	1099.87	97.07
308.15 K, x1 = 0.7002	1116.01	137.7
308.15 K, x1 = 0.8001	1128.64	182
308.15 K, x1 = 0.8985	1139.04	278.9
308.15 K, x1 = 1	1147.8	455.4
313.15 K, x1 = 0.1001	884.01	5.069
313.15 K, x1 = 0.2	959.16	11.51
313.15 K, x1 = 0.2999	1009.82	20.53
313.15 K, x1 = 0.4	1046.89	36.31
313.15 K, x1 = 0.5001	1075.26	58.15
313.15 K, x1 = 0.5998	1096.85	77.62
313.15 K, x1 = 0.7002	1113.12	107.2
313.15 K, x1 = 0.8001	1125.89	138.5
313.15 K, x1 = 0.8985	1136.19	207.8
313.15 K, x1 = 1	1144.89	324.6
318.15 K, x1 = 0.1001	880.4	4.515
318.15 K, x1 = 0.2	955.64	10.08
318.15 K, x1 = 0.2999	1006.35	17.42
318.15 K, x1 = 0.4	1043.68	30.62
318.15 K, x1 = 0.5001	1072.32	48.57
318.15 K, x1 = 0.5998	1094.09	63.07
318.15 K, x1 = 0.7002	1110.26	85.59
318.15 K, x1 = 0.8001	1123.09	109
318.15 K, x1 = 0.8985	1133.33	160.3
318.15 K, x1 = 1	1142	239.7
323.15 K, x1 = 0.1001	876.76	4.052
323.15 K, x1 = 0.2	952.12	8.828
323.15 K, x1 = 0.2999	1002.86	15.18
323.15 K, x1 = 0.4	1040.46	26.11
323.15 K, x1 = 0.5001	1069.5	40.73
323.15 K, x1 = 0.5998	1091.18	52.16
323.15 K, x1 = 0.7002	1107.31	70.03
323.15 K, x1 = 0.8001	1120.31	86.93
323.15 K, x1 = 0.8985	1130.45	125.4
323.15 K, x1 = 1	1139.11	181.2
328.15 K, x1 = 0.1001	873.09	3.672
328.15 K, x1 = 0.2	948.69	7.836
328.15 K, x1 = 0.2999	1000.05	13.38
328.15 K, x1 = 0.4	1037.56	22.57
328.15 K, x1 = 0.5001	1066.62	34.87
328.15 K, x1 = 0.5998	1088.47	45.82
328.15 K, x1 = 0.7002	1104.35	58.38
328.15 K, x1 = 0.8001	1117.52	71.22
328.15 K, x1 = 0.8985	1127.59	101.4
328.15 K, x1 = 1	1136.24	141.1
333.15 K, x1 = 0.1001	869.4	3.36
333.15 K, x1 = 0.2	945.77	6.989
333.15 K, x1 = 0.2999	996.95	11.94
333.15 K, x1 = 0.4	1034.62	19.89
333.15 K, x1 = 0.5001	1063.89	29.99
333.15 K, x1 = 0.5998	1085.59	39.36
333.15 K, x1 = 0.7002	1101.65	49.32
333.15 K, x1 = 0.8001	1114.82	59.34
333.15 K, x1 = 0.8985	1124.75	83.14
333.15 K, x1 = 1	1133.4	111.9

— the NIST ThermoML archive (doi:10.1016/j.jct.2019.02.031)
